According to patent EP1202975B1, “SUBSTITUTED POLYCYCLIC ARYL AND HETEROARYL PYRAZINONES USEFUL FOR SELECTIVE INHIBITION OF THE COAGULATION CASCADE” (Pharmacia Corporation, priority 1999, dated 2000):
Like-named read-outs stand apart in the source and are kept apart here.

How the values were obtained:
TF-VIIa = biological target: T1, TF-VIIa (Homo sapiens, UniProt P08709); assay: TF-VIIa Assay; assay type: biochemical
T1 construct: 2nM recombinant human factor VIIa; purchased American Diagnostica, Greenwich CT; host or cells: soluble TF made in house in E. coli
T1 sequence (P08709 213-466 limits assumed): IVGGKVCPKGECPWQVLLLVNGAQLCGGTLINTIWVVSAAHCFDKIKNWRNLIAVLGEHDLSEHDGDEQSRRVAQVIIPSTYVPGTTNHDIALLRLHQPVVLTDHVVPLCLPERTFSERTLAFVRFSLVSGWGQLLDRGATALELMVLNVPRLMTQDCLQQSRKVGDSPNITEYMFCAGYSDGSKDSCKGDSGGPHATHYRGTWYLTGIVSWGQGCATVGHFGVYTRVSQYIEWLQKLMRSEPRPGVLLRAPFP
T1 sequence (P08709 61-212 limits assumed): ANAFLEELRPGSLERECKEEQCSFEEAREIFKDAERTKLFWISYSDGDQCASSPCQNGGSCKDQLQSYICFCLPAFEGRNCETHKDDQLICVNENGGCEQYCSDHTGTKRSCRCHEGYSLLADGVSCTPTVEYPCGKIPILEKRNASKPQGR
T1 sequence (P13726 33-251 partner limits assumed): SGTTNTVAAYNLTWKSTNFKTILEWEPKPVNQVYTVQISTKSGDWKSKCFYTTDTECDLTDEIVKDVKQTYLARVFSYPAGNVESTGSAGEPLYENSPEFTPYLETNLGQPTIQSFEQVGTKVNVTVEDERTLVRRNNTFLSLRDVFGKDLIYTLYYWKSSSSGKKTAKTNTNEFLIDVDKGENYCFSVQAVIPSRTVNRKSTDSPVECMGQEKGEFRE

Human factor Xa = Human factor Xa (Homo sapiens, UniProt P00742)
Chain of Human factor Xa (P00742 235-488 limits assumed): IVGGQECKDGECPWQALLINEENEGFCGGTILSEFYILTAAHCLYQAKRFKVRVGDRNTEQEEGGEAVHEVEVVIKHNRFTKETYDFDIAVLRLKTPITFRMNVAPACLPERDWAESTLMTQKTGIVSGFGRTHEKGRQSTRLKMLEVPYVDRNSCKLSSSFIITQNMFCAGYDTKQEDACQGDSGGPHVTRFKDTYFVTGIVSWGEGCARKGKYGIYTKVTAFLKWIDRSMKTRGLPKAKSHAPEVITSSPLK
Chain of Human factor Xa (P00742 41-179 limits assumed): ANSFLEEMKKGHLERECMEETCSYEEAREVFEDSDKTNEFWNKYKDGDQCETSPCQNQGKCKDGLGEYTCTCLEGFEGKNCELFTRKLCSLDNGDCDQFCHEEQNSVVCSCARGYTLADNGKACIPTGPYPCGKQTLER

[1] = read-out: IC50 or % Inhibition TF-VIIa (30 µM); cells given as a plain number (IC50)
[2] = cells given as a plain number (IC50); read-out: IC50 or % Inhibition TF-VIIa (30 µM)

| IC50 (TF-VIIa; [1]) | IC50 or % Inhibition Factor Xa (30 µM) (Human factor Xa) | IC50 or % Inhibition TF-VIIa (30 µM) (TF-VIIa) | IC50 (TF-VIIa; [2]) | Structure (SMILES) |
| --- | --- | --- | --- | --- |
| 11.2 µM | 26% | – | – | N=C(N)c1ccc(CNC(=O)Cn2c(-c3ccc(Cl)cc3)c(Cl)nc(NCCc3ccc(Cl)cc3)c2=O)cc1 [1471-18] |
| – | 26% | 33% | – | N=C(N)c1ccc(CNC(=O)Cn2c(-c3ccc(Cl)cc3)c(Cl)nc(NCc3ccncc3)c2=O)cc1 [1471-19] |
| – | 34% | 42% | – | N=C(N)c1ccc(CNC(=O)Cn2c(-c3ccc(Cl)cc3)c(Cl)nc(NCCN3CCOCC3)c2=O)cc1 [1471-20] |
| 14.6 µM | 28% | – | – | N=C(N)c1ccc(CNC(=O)Cn2c(-c3ccc(Cl)cc3)c(Cl)nc(NCCc3cccc(Cl)c3)c2=O)cc1 [1471-22] |
| – | 36% | – | 8.88 µM | N=C(N)c1ccc(CNC(=O)Cn2c(-c3ccc(Cl)cc3)c(Cl)nc(NCCc3ccccc3)c2=O)cc1 [1471-23] |
| 4.19 µM | 16% | – | – | N=C(N)c1ccc(CNC(=O)Cn2c(-c3cccc(Cl)c3)c(Cl)nc(NCc3ccncc3)c2=O)cc1 [1471-27] |
| 7.22 µM | 8% | – | – | N=C(N)c1ccc(CNC(=O)Cn2c(-c3cccc(Cl)c3)c(Cl)nc(NCCN3CCOCC3)c2=O)cc1 [1471-28] |
| 2.18 µM | 21% | – | – | N=C(N)c1ccc(CNC(=O)Cn2c(-c3cccc(Cl)c3)c(Cl)nc(NCCc3ccncc3)c2=O)cc1 [1471-29] |
| 0.83 µM | 41% | – | – | N=C(N)c1ccc(CNC(=O)Cn2c(-c3cccc(Cl)c3)c(Cl)nc(NCCc3cccc(Cl)c3)c2=O)cc1 [1471-30] |
| – | 17% | – | 1.98 µM | N=C(N)c1ccc(CNC(=O)Cn2c(-c3cccc(Cl)c3)c(Cl)nc(NCCc3ccccc3)c2=O)cc1 [1471-31] |
| 1.19 µM | 25% | – | – | N=C(N)c1ccc(CNC(=O)Cn2c(-c3cccc(Cl)c3)c(Cl)nc(NCCc3cccnc3)c2=O)cc1 [1471-32] |
| – | 22% | 31% | – | COc1ccc(-c2c(Cl)nc(NCc3ccccc3)c(=O)n2CC(=O)NCc2ccc(C(=N)N)cc2)cc1 [1471-33] |
| 17.5 µM | 24% | – | – | COc1ccc(-c2c(Cl)nc(NCCc3ccc(Cl)cc3)c(=O)n2CC(=O)NCc2ccc(C(=N)N)cc2)cc1 [1471-34] |
| – | 22% | 37% | – | COc1ccc(-c2c(Cl)nc(NCc3ccncc3)c(=O)n2CC(=O)NCc2ccc(C(=N)N)cc2)cc1 [1471-35] |
| – | 6% | 11% | – | COc1ccc(-c2c(Cl)nc(NCCN3CCOCC3)c(=O)n2CC(=O)NCc2ccc(C(=N)N)cc2)cc1 [1471-36] |
| – | 7% | 39% | – | COc1ccc(-c2c(Cl)nc(NCCc3ccncc3)c(=O)n2CC(=O)NCc2ccc(C(=N)N)cc2)cc1 [1471-37] |
| – | 11% | 40% | – | COc1ccc(-c2c(Cl)nc(NCCc3cccnc3)c(=O)n2CC(=O)NCc2ccc(C(=N)N)cc2)cc1 [1471-40] |
| 18.3 µM | 34% | – | – | N=C(N)c1ccc(CNC(=O)Cn2c(-c3ccc4c(c3)OCO4)c(Cl)nc(NCc3ccccc3)c2=O)cc1 [1471-41] |
| 10.5 µM | 15% | – | – | N=C(N)c1ccc(CNC(=O)Cn2c(-c3ccc4c(c3)OCO4)c(Cl)nc(NCCc3ccc(Cl)cc3)c2=O)cc1 [1471-42] |
| 25.3 µM | 18% | – | – | N=C(N)c1ccc(CNC(=O)Cn2c(-c3ccc4c(c3)OCO4)c(Cl)nc(NCc3ccncc3)c2=O)cc1 [1471-43] |
| – | 13% | 34% | – | N=C(N)c1ccc(CNC(=O)Cn2c(-c3ccc4c(c3)OCO4)c(Cl)nc(NCCN3CCOCC3)c2=O)cc1 [1471-44] |
